Results reported in publication PMC7251097, “Aspartate/asparagine-β-hydroxylase: a high-throughput mass spectrometric assay for discovery of small molecule inhibitors” (Scientific Reports, 2020).
Several values for one entry are separate records, joined by “and”; a condition that tells them apart may be missing. Identical values can stand only once. Counter-ions that a name gives are not always drawn. Like-named read-outs stand apart in the source and are kept apart here. Starred links: 1 amine or outer side, 2 acyl side, 3 side chain; linkers in the order of their positions; H or OH if unused. Non-standard residues stand in square brackets, D forms with d. Residues, ends and D or L forms follow the SMILES beside them. X1 = NCCCC[C@H](N)CN([C@@H](CCCCN)C(=O)[*:2])[*:1]; Tle = CC(C)(C)[C@H](N)C(=O)O

Molecular target: T1, His6-AspH315–758 (human aspartate/asparagine-β-hydroxylase, AspH) (Homo sapiens, UniProt Q12797)
T1 construct: N-Terminally His6-tagged human AspH315–758 (His6-AspH315–758) was produced in E. coli BL21 (DE3) cells; made in house; host or cells: E. coli BL21 (DE3), pET-28a(+) vector
T1 sequence (Q12797 315-758): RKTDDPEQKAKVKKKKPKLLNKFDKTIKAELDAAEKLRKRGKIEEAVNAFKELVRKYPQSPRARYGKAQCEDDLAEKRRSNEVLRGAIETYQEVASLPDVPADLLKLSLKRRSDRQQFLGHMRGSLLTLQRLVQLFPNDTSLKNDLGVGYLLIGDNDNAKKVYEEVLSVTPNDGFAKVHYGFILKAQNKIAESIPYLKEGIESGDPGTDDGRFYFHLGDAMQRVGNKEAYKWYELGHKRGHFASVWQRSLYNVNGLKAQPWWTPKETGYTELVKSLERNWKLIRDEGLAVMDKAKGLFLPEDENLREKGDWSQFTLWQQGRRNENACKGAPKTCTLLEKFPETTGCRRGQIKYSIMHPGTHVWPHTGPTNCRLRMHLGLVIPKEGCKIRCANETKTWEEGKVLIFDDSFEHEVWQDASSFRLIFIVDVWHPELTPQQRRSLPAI
Experiment: SPE-MS AspH inhibition assay (LOPAC screen at fixed 20 μM and IC50 dose-response), hydroxylation of cyclic peptide hFX-CP101–119
Assay type: biochemical
Settings: for Plate 5 (% conversion): mean conversion DMSO 32.88

[1] = LOPAC compound at 20uM, plate 2, conversion of substrate peptide
[2] = LOPAC compound at 20uM, plate 2, normalised to DMSO and 2,4-PDCA controls
[3] = LOPAC Plate 4, compound at 20 uM, substrate conversion
[4] = plate 5 (Pfitzer), test compounds at fixed 20 μM
[5] = LOPAC compound at 20uM, plate 2, normalised to DMSO and 2,4-PDCA controls, read-out: Plate 2 (% inhibition)
[6] = LOPAC compound at 20uM, plate 3, conversion of substrate peptide
[7] = LOPAC Plate 4, compound at 20 uM
[8] = LOPAC compound at fixed 20 uM, plate 1, normalised to DMSO and 2,4-PDCA controls
[9] = LOPAC compound at fixed 20 uM, substrate conversion, plate 1

O=C(O)CN(CCN(CC(=O)O)CC(=O)O)CCN(CC(=O)O)CC(=O)O [Diethylenetriaminepentaacetic acid, reference compound] was tested, and the “Inhibition at 20 µM [%]” value (AspH activity, fixed compound concentration 20 μM, initial LOPAC screen, 0.5%v/v DMSO) was 100.3%, the “Plate 2 (% conversion)” value [1] was 2.39% and the “Plate 2 (% inhibition)” value [2] was 100.26%.

COc1cc(OC)cc(-c2cc3cnc(N)nc3nc2NC(=O)NC(C)(C)C)c1 [PD-166866] was tested, and the “% conversion” value [3] was 36.54%, the “Plate 5 (% inhibition)” value [4] was -5.94% and the “Plate 5 (% conversion)” value [4] was 38.34%.

Oc1c2ccccc2c2c3c(cccc13)N=N2 [SP600125] was tested, and the “Plate 2 (% conversion)” value [1] was 37.53% and the inhibition at 20 µM [5] was -4.71%.

CS(=O)(=O)O.Cc1c(O)cccc1C(=O)N[C@@H](CSc1ccccc1)[C@H](O)CN1C[C@H]2CCCC[C@H]2C[C@H]1C(=O)NC(C)(C)C.O [Nelfinavir mesylate hydrate] was tested, and the “Plate 2 (% conversion)” value [1] was 32.94% and the “Plate 2 (% inhibition)” value [2] was 9.02%.

In the case of CCCn1c(=O)c(C)cn2nc(N)nc12 [ICI 63,137], the “% conversion” value is reported as 30.53%.

In the case of C[C@@H](N)Cc1cnc[nH]1.Cl.Cl, the “Plate 2 (% conversion)” value is reported as 36.76% and the “Plate 2 (% inhibition)” value (20 µM) is reported as -2.41%.

For CC(C)Nc1cccnc1N1CCN(C(=O)c2cc3cc(NS(C)(=O)=O)ccc3[nH]2)CC1 [Delavirdine], the “Plate 5 (% inhibition)” value [4] was 28.61% and the “Plate 5 (% conversion)” value [4] was 26.58%.

For CC(C)NNC(=O)c1ccncc1.O=P(O)(O)O [Iproniazid phosphate], the “Plate 3 (% conversion)” value [6] was 39.38%.

In the case of NC(=O)CI [Iodoacetamide, reference compound], the “Inhibition at 20 µM [%]” value is reported as 102.0%.

Cl.NCCNS(=O)(=O)c1cccc2c(Cl)cccc12 [A3 hydrochloride] was tested, and the “% conversion” value was 25.50%.

Br.COc1ccc(-c2ccc(=N)n(CCCC(=O)O)n2)cc1 [SR-95531] was tested, and the “% conversion” value was 38.69% and the “% inhibition” value (20 µM) was -6.50%.

In the case of Cc1nc2sccn2c(=O)c1CCN1CCC(=C(c2ccc(F)cc2)c2ccc(F)cc2)CC1 [Ritanserin], the “% conversion” value [3] is reported as 37.56%.

CC[C@@]1(O)C(=O)OCc2c1cc1n(c2=O)Cc2cc3c(CN(C)C)c(O)ccc3nc2-1.Cl.O [Topotecan hydrochloride hydrate] was tested, and the “Plate 3 (% conversion)” value [6] was 37.14%.

For Picrotoxin, the “Plate 3 (% conversion)” value was 36.08%.

COc1ccc(/C=C/c2nc(NCCCN(C)C)c3ccccc3n2)cc1.Cl.Cl.O [CP-31398 dihydrochloride hydrate] was tested, and the “% conversion” value [3] was 42.00%.

With O=C(O)c1ccnc(C(=O)O)c1 [2,4-pyridinedicarboxylic acid] the “Plate 2 (% inhibition)” value (100 uM 2,4-PDCA control wells (columns 1, 2), plate 2) was 100.30% and 100.62% and 100.70%, the “% inhibition” value (LOPAC Plate 3, 100 uM 2,4-PDCA control wells (columns 1, 2)) was 99.57% and 99.80% and the “Plate 1 (% inhibition)” value (plate 1) was 100.60% and 99.95% and 100.29%. For the same compound, the “Plate 5 (% conversion), 2,4-PDCA control” value (plate 5, 100 uM 2,4-PDCA controls, plate columns 1, 2) was 2.34%.

With Cn1c(=O)c(-c2c(Cl)cccc2Cl)cc2cnc(Nc3ccc(N4CCOCC4)cc3)nc21 [PD173952] the “% inhibition” value [7] was -8.20%, the “% conversion” value [3] was 39.27% and the “Plate 5 (% inhibition)” value [4] was 58.03%. For the same compound, the “Plate 5 (% conversion)” value [4] was 16.57%.

For CCCCC1C(=O)N(c2ccccc2)N(c2ccccc2)C1=O [Phenylbutazone], the “% conversion” value [3] was 37.63% and the inhibition at 20 µM (LOPAC Plate 4, compound at 20 uM, read-out: % inhibition) was -3.41%.

For CC(C)c1c(C(=O)Nc2ccccc2)c(-c2ccccc2)c(-c2ccc(F)cc2)n1CC[C@@H](O)C[C@@H](O)CC(=O)O [Atorvastatin calcium salt trihydrate], the “Plate 1 (% inhibition)” value [8] was 1.55% and the “Plate 5 (% inhibition)” value [4] was 17.18%.

With O=C1NC(=O)c2cc(Nc3ccccc3)c(Nc3ccccc3)cc21 [DAPH] the “Plate 1 (% inhibition)” value [8] was -7.17% and the “Plate 1 (% conversion)” value [9] was 38.28%.

CN1C(=O)CC[C@H]1c1cccnc1 [(-)-Cotinine] was tested, and the “Plate 1 (% conversion)” value was 36.85% and the “Plate 1 (% inhibition)” value was -2.91%.

CCC1(c2ccccc2)C(=O)NCNC1=O [Primidone] was tested, and the “% conversion” value [3] was 31.08%.

O=C(c1ccc(Cl)cc1)N1CCN(c2ccc([N+](=O)[O-])c3ncccc23)CC1 [CPNQ] was tested, and the “Plate 2 (% conversion)” value [1] was 35.99% and the “Plate 2 (% inhibition)” value [2] was -0.10%.

In the case of CC(C)Cc1ccc([C@H](C)C(=O)O)cc1 [S(+)-Ibuprofen], the “Plate 3 (% conversion)” value [6] is reported as 38.99%.

For C[C@H]1C[C@H]2[C@@H]3CCC4=CC(=O)C=C[C@]4(C)[C@@]3(Cl)[C@@H](O)C[C@]2(C)[C@@]1(O)C(=O)CO [Beclomethasone], the “Plate 1 (% inhibition)” value [8] was -10.42% and the “Plate 1 (% conversion)” value [9] was 39.37%.

For CC(C)(Sc1ccc(CCN(CCCCC2CCCCC2)C(=O)NC2CCCCC2)cc1)C(=O)O [GW7647], the “Plate 2 (% conversion)” value [1] was 29.96% and the inhibition at 20 µM [5] was 17.9%.

With Cc1ccccc1N1C(=O)c2cc(S(N)(=O)=O)c(Cl)cc2NC1C (stereo not shown) [Metolazone] the “Plate 2 (% conversion)” value [1] was 34.23%, the inhibition at 20 µM [5] was 5.16% and the “Plate 3 (% conversion)” value [6] was 30.85%.

With C=C1C[C@@H]2[C@H](CC[C@]3(C)C(=O)CC[C@@H]23)[C@@]2(C)C=CC(=O)C=C12 [Exemestane] the “Plate 5 (% inhibition)” value was 2.56% and the “Plate 5 (% conversion)” value [4] was 35.45%.

Nc1ccc(CCNc2ncnc3c2ncn3[C@@H]2O[C@H](CO)[C@@H](O)[C@H]2O)cc1 [N6-2-(4-Aminophenyl)ethyladenosine] was tested, and the “Plate 1 (% inhibition)” value [8] was -0.97% and the “Plate 1 (% conversion)” value [9] was 36.20%.

With O=C(NCCN1CCOCC1)c1ccc(Cl)cc1 [Moclobemide] the “Plate 3 (% conversion)” value [6] was 38.98%.

N=C(N)NCCC[C@H](N)C(=O)O [L-Arginine] was tested, and the “Plate 1 (% conversion)” value was 38.11% and the “Plate 1 (% inhibition)” value was -6.68%.

For CC(C)COCC(CN(Cc1ccccc1)c1ccccc1)N1CCCC1 (stereo not shown) [Bepridil hydrochloride], the “Plate 1 (% inhibition)” value [8] was 94.47% and the “Plate 1 (% conversion)” value [9] was 4.14%.

In the case of Cl.NOCC(=O)O.NOCC(=O)O, the “Plate 1 (% inhibition)” value [8] is reported as -6.07% and the “Plate 1 (% conversion)” value [9] is reported as 37.91%.

In the case of COc1ccc(OCC2c3cc(OC)c(OC)cc3CCN2C(=O)c2cccc(Cl)c2)cc1 (stereo not shown) [CIQ], the “% conversion” value [3] is reported as 36.09%.

For COC[C@H]1OC(=O)c2coc3c2[C@@]1(C)C1=C(C3=O)[C@@H]2CCC(=O)[C@@]2(C)C[C@H]1OC(C)=O [Wortmannin from Penicillium funiculosum], the “% conversion” value was 29.28%.

In the case of CN[C@@H]1C[C@@H](c2ccc(Cl)c(Cl)c2)c2ccccc21 [Indatraline hydrochloride], the “Plate 3 (% conversion)” value is reported as 41.79%.

With O=C1NC(=O)[C@@]2(CCOc3ccc(F)cc32)N1 [Sorbinil] the “Plate 1 (% inhibition)” value [8] was -13.94% and the “Plate 1 (% conversion)” value [9] was 40.55%.

In the case of CC(C)(C)c1ccc(/C=C/C(=O)Nc2ccc3c(c2)OCCO3)cc1 [AMG 9810], the “% inhibition” value [7] is reported as 5.34% and the “% conversion” value [3] is reported as 34.65%.

With c1ccc2cc(-c3ncc[nH]3)ccc2c1 [Benazoline oxalate] the “Plate 1 (% inhibition)” value [8] was 77.21% and the “Plate 1 (% conversion)” value [9] was 9.94%.

O=c1c(-n2ccnn2)c[nH]n1-c1cc(N2CCOCC2)ncn1 [Molidustat, molidustat, reference compound] showed an IC50 (50 nM His6-AspH315–758, 1.0 μM hFX-CP101–119, 3 μM 2OG, 2 μM Fe(II), 50 mM HEPES pH 7.5, 20 °C, mean ± SD, n = 2 (2,4-PDCA n = 10), read-out: IC50) of 13.4 ± 1 µM.

In the case of CC(=O)[C@H]1CC[C@H]2[C@@H]3CC[C@H]4C[C@H](O)CC[C@]4(C)[C@H]3C(=O)C[C@]12C [5alpha-Pregnan-3alpha-ol-11,20-dione], the “Plate 3 (% conversion)” value is reported as 35.35%.

With C[C@H](CSC(=O)c1ccccc1)C(=O)N1C[C@@H](Sc2ccccc2)C[C@H]1C(=O)[O-].C[C@H](CSC(=O)c1ccccc1)C(=O)N1C[C@@H](Sc2ccccc2)C[C@H]1C(=O)[O-].[Ca+2] [Zofenopril calcium] the “% conversion” value was 32.50% and the “% inhibition” value (20 µM) was 11.63%.

In the case of COC(=O)C1=C(C)NC(C)=C(C(=O)OC)C1c1ccccc1[N+](=O)[O-] [Nifedipine], the “Plate 3 (% conversion)” value is reported as 39.50%.

With CC(=O)/C=C1\C(=O)N(C)c2ccccc21 [Supercinnamaldehyde] the “Plate 1 (% inhibition)” value [8] was -3.46% and the “Plate 1 (% conversion)” value [9] was 37.03%.

With Nc1c(S(=O)(=O)O)cc(Nc2ccc(Nc3nc(Cl)nc(Nc4cccc(S(=O)(=O)O)c4)n3)c(S(=O)(=O)O)c2)c2c1C(=O)c1ccccc1C2=O [Reactive Blue 2, reference compound] the “% conversion” value was 3.94%, the inhibition at 20 µM was 95.3% and the inhibition at 20 µM (read-out: Inhibition at 20 µM [%]) was 95.3%.

Fc1ccc(C(c2ccc(F)cc2)N2CCN(C/C=C/c3ccccc3)CC2)cc1 [Flunarizine dihydrochloride] was tested, and the “Plate 2 (% conversion)” value [1] was 46.32% and the inhibition at 20 µM [5] was -31%.

In the case of CNCCC(Oc1ccccc1OC)c1ccccc1 (stereo not shown) [Nisoxetine hydrochloride], the “Plate 3 (% conversion)” value is reported as 39.53%.

In the case of Oc1ccc(/C=C/c2cc(O)cc(O)c2)cc1 [Resveratrol], the “% conversion” value [3] is reported as 34.33%.

For COc1cccc(-c2cc(=O)c3ccccc3o2)c1N [PD 98,059], the “% conversion” value was 28.37%.

With CCOC(=O)[C@H](CC(C)C)NC(=O)[C@@H](NC(=O)[C@H](Cc1c[nH]c2ccccc12)NC(=O)[C@@H]1CCCN1C(=O)[C@H](CCCCN)NC[C@@H](N)CCCCN)C(C)(C)C [PD-149163] (H-[X1]PW[Tle]L-OEt) the “Plate 5 (% inhibition)” value [4] was -16.72% and the “Plate 5 (% conversion)” value [4] was 42.01%.
